Laboratory results reported in US20250188030A1, “Biphenyl and Phenylpyridine Compounds” (Pfizer Inc., priority 2023, published 2025).
Where two headings read alike, the source gives them in different places.

How the values were obtained:
H3K9AC (HT1080 cells) = experiment: H3K9AC Sandwich ELISA Assay in HT1080 cells (KAT2A primary cell-based screening assay); parameters: species or system Human
Summary of the method: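 Acetylated H3K9 quantified by luminescent sandwich ELISA (total H3 capture, H3K9ac detection) on HCl lysates of HT1080 cells. Cells had 24 h compound exposure at 37 °C, top concentration 10 µM, 10-point 3-fold series, 0.1% DMSO; IC50 from four-parameter fitting.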

MM.1S cells = experiment: MM1.S 10 Day Proliferation Assay (CellTiter-Glo); type: cell-based, Human
Protocol: Human B lymphoblast cell line MM.1S was obtained from American Type Culture Collection (ATCC), Manassas, VA USA, Cat. MM.1S (ATCC® CRL-2974™). Cells were cultured in RPMI (Thermo Fisher Scientific/Gibco Life Technologies Cat. #111875-093) plus 10% (v/v) FBS (Thermo Fisher Scientific/Gibco Life Technologies Cat. #26140-079) and 1% Penicillin-Streptomycin (Thermo Fisher Scientific/Gibco Life Technologies Cat. #15070063) at 37° C. in 5% CO2.
MM1.S cells were trypsinized cell viability count performed, and cells suspended in complete media at 5,556 cells/ml. Cells were then seeded (90 μl/well) into a 96-well round black/clear bottom, ULA (Ultra-Low Attachment surface plate (Corning cat #4520) at a density of 500 cells/well. Cells were then incubated for 16 hours at 37° C. and 5% CO2. Compound dilution plates were prepared in 96-well, clear U-bottom, polypropylene plates (Corning 3365) in 100% DMSO at 10 mM stock concentration in duplicate wells, using a 10-point serial dilution (1:3 dilutions). Compounds were diluted to 1:100 in growth medium. Then 10 μl of diluted compounds were added to each well of the cell plates using a Beckman FX liquid handling system such that the highest compound concentration tested was 10 μM final, with a 0.1% final DMSO concentration in the total volume of 100 μl. Plates were incubated for 10 total days at 37° C. and 5% CO2. Fresh media containing compound was refreshed at 5 days treatment.
Finally, the treatment plates were removed from the incubator and 100 μl of CellTiter-Glo Luminescent reagent was added to each well, and plates were equilibrated in the dark for 30 minutes. Plates were read on the PHERAstar plate reader using the 96-well with Luminescent reading mode. IC50 values were calculated using a four-parameter fit with GraphPad Prism version 9.5.1 or in house modified IDBS ActivityBase data analyzing package.

KAT2A = KAT2A (Homo sapiens (Human), UniProt Q92830); experiment: KAT2A acetyltransferase biochemical assay (RapidFire mass spectrometry, AcCoA to CoA)
Chain of KAT2A (Q92830 whole entry): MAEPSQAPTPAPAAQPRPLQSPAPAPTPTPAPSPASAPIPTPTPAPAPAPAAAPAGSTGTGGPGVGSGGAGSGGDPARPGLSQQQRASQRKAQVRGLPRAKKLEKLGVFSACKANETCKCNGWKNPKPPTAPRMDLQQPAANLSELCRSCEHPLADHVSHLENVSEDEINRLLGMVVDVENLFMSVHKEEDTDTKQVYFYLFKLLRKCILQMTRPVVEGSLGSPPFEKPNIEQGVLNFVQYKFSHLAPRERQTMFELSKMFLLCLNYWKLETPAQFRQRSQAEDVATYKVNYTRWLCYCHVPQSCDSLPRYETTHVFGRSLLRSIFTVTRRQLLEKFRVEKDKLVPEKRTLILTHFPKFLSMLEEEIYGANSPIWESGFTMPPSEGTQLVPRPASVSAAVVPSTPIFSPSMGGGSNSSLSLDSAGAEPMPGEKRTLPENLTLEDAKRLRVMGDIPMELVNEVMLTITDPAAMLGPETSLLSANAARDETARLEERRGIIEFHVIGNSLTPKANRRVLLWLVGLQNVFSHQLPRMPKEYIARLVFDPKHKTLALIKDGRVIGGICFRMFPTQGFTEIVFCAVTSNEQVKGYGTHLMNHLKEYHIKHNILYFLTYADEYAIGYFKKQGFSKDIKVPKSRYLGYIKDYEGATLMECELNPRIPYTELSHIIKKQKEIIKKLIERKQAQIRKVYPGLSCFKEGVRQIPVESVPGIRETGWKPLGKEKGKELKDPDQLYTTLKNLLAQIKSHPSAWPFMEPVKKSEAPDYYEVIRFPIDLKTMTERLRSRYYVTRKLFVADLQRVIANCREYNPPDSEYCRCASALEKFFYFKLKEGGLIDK

[1] = Homo sapiens, HT-1080, H3K9AC sandwich ELISA
[2] = read-out: KAT2A Ki at 1 μM AcCoA, 5 μM H3 1-21 peptide, 0.5 nM KAT2A, 90-minute reaction
[3] = KAT2A Ki at 1 μM AcCoA, 5 μM H3 1-21 peptide, 0.5 nM KAT2A, 90-minute reaction

Structure (SMILES)	IC50 (H3K9AC (HT1080 cells); [1])	IC50 (MM.1S cells; Homo sapiens, MM1.S, 240 h)	Ki (KAT2A; [2])	IC50 (H3K9AC (HT1080 cells); H3K9AC sandwich ELISA)	IC50 (MM.1S cells)	Ki (KAT2A; [3])
CC(C)c1ccccc1-c1cc(C(=O)O)ccc1O[C@@H]1CC[C@@H](NC(=O)[C@@]2(F)CNC3(CCC3)C2)C1 [Example A39, 6-{[(1R,3R)-3-{[(7S)-7-fluoro-5-azaspiro[3.4]octane-7-carbonyl]amino}cyclopentyl]oxy}-2′-(propan-2-yl)[1,1′-biphenyl]-3-carboxylic acid]	6.4 nM	29.7 nM	0.35 nM			
O=C(O)c1ccc(O[C@@H]2CC[C@@H](NC(=O)[C@@]3(F)CNCC4(CCC4)C3)C2)c(-c2cccc(F)c2C2CCC2)c1 (single isomer, unassigned) [Example A34]		7.8 nM	0.21 nM	1.4 nM		
CC(C)(C(=O)NS(C)(=O)=O)c1ccc(O[C@@H]2CC[C@@H](NC(=O)[C@@]3(F)CNC4(CCC4)C3)C2)c(-c2cccc(F)c2C2CCC2)c1 [Example C1, (7S)—N-{(1R,3R)-3-[(2′-cyclobutyl-3′-fluoro-5-{1-[(methanesulfonyl)amino]-2-methyl-1-oxopropan-2-yl}[1,1′-biphenyl]-2-yl)oxy]cyclopentyl}-7-fluoro-5-azaspiro[3.4]octane-7-carboxamide]	18 nM	36.8 nM	0.43 nM			
O=C(O)Cc1ccc(O[C@@H]2CC[C@@H](NC(=O)[C@@]3(F)CNC4(CCC4)C3)C2)c(-c2cccc(F)c2C2CCC2)c1 (single isomer, unassigned) [Example A7]	4.45 nM	30.9 nM	1.25 nM			
CC(C)c1c(F)cccc1-c1cc(CC(=O)O)ccc1O[C@@H]1CC[C@@H](NC(=O)[C@@]2(F)CNC3(CCC3)C2)C1 [Example A32, [3′-fluoro-6-{[(1R,3R)-3-{[(7S)-7-fluoro-5-azaspiro[3.4]octane-7-carbonyl]amino}cyclopentyl]oxy}-2′-(propan-2-yl)[1,1′-biphenyl]-3-yl]acetic acid]	4.5 nM	31.3 nM	0.84 nM			
CC(C)S(=O)(=O)NC(=O)C(C)(C)c1ccc(O[C@@H]2CC[C@@H](NC(=O)[C@@]3(F)CNC(C)(C)C3)C2)c(-c2cccc(F)c2C2CCC2)c1 (single isomer, unassigned) [Example B17]			0.1 nM	3.49 nM	41.7 nM	
CC(C)(C(=O)NS(=O)(=O)C1CC1)c1ccc(O[C@@H]2CC[C@@H](NC(=O)[C@@]3(F)CNC4(CCCC4)C3)C2)c(-c2cccc(F)c2C2CCC2)c1 (single isomer, unassigned) [Example B26]	2.2 nM	7.4 nM	0.06 nM			
CC[C@](C)(C(=O)O)c1ccc(O[C@@H]2CC[C@@H](NC(=O)[C@]3(F)CNC4(CCC4)C3)C2)c(-c2cccc(F)c2C2CCC2)c1 (single isomer, unassigned) [Example A9]			0.84 nM	11.1 nM	135 nM	
CCc1c(F)cccc1-c1cc(C(=O)O)ccc1O[C@@H]1CC[C@@H](NC(=O)[C@@]2(F)CNC3(CCCC3)C2)C1 (single isomer, unassigned) [Example A42]			0.41 nM	8.4 nM	37.4 nM	
CS(=O)(=O)NC(=O)Cc1ccc(O[C@@H]2CC[C@@H](NC(=O)C3(F)CNC4(CCCC4)C3)C2)c(-c2cccc(F)c2C2CCC2)c1 (single isomer, unassigned) [Example B16]	2.68 nM	11.6 nM				0.08 nM

Other lines, results leading:

IC50 (H3K9AC (HT1080 cells); [1])	IC50 (MM.1S cells; Homo sapiens, MM1.S, 240 h)	Ki (KAT2A; [2])	IC50 (H3K9AC (HT1080 cells); H3K9AC sandwich ELISA)	IC50 (MM.1S cells)	Ki (KAT2A; [3])	Structure (SMILES)
2.2 nM	5.2 nM	0.08 nM				CCS(=O)(=O)NC(=O)Cc1ccc(O[C@@H]2CC[C@@H](NC(=O)[C@@]3(F)CNC4(CCCC4)C3)C2)c(-c2ccccc2C(C)C)c1 (single isomer, unassigned) [Example C63]
3.5 nM	7.8 nM	0.14 nM				CC1(C)CNC[C@](F)(C(=O)N[C@@H]2CC[C@@H](Oc3ccc(C(C)(C)C(=O)NS(=O)(=O)C4(C)CC4)cc3-c3cccc(F)c3C3CCC3)C2)C1 (single isomer, unassigned) [Example C35]
4.4 nM	13.8 nM	0.07 nM				CCc1c(F)cccc1-c1cc(CC(=O)NS(=O)(=O)C(C)C)ccc1O[C@@H]1CC[C@@H](NC(=O)[C@@]2(F)CNCC(C)(C)C2)C1 (single isomer, unassigned) [Example C67]
4.83 nM	11.9 nM	0.31 nM				[2H]C([2H])([2H])N1CC(C)(C)C[C@H]1C(=O)N[C@@H]1CC[C@@H](Oc2ccc(C(C)(C)C(=O)NS(C)(=O)=O)cc2-c2cccc(F)c2C2CCC2)C1 [Example E5]
6.9 nM	43.4 nM	0.21 nM				Cc1cc(NS(C)(=O)=O)n(-c2ccc(O[C@@H]3CC[C@@H](NC(=O)[C@@]4(F)CNC5(CCC5)C4)C3)c(-c3cccc(F)c3C3CCC3)c2)n1 (single isomer, unassigned) [Example L3]
		0.14 nM	4.49 nM	7.8 nM		CC(C)(C(=O)NS(=O)(=O)C1(C)CC1)c1ccc(O[C@@H]2CC[C@@H](NC(=O)[C@@]3(F)CNC4(CCC4)C3)C2)c(-c2cccc(F)c2C2CC2)c1 (single isomer, unassigned) [Example C22]
7.01 nM	56 nM	0.16 nM				Cc1cc(NS(C)(=O)=O)n(-c2ccc(O[C@@H]3CC[C@@H](NC(=O)[C@@H]4CC(C)(C)CN4C)C3)c(-c3cccc(F)c3C3CCC3)c2)n1 [Example L1, N-[(1R,3R)-3-({2′-cyclobutyl-3′-fluoro-5-[5-(methanesulfonamido)-3-methyl-1H-pyrazol-1-yl][1,1′-biphenyl]-2-yl}oxy)cyclopentyl]-1,4,4-trimethyl-L-prolinamide]
34.2 nM	202 nM	26.6 nM				CN1CC(C)(C)C[C@H]1C(=O)N[C@@H]1CC[C@@H](Oc2ccc(C(C)(C)C(=O)NS(C)(=O)=O)cc2-c2cccc(F)c2C2CC2)C1 [Example E7, N-{(1R,3R)-3-[(2′-cyclopropyl-3′-fluoro-5-{1-[(methanesulfonyl)amino]-2-methyl-1-oxopropan-2-yl}[1,1′-biphenyl]-2-yl)oxy]cyclopentyl}-1,4,4-trimethyl-L-prolinamide]
4.7 nM	18.9 nM	0.21 nM				CC(C)S(=O)(=O)NC(=O)C(C)(C)c1ccc(O[C@@H]2CC[C@@H](NC(=O)[C@@]3(F)CNC4(CCC4)C3)C2)c(-c2ccccc2C2CCC2)c1 (single isomer, unassigned) [Example C48]
	1.8 nM	0.02 nM	0.6 nM			CN(C)S(=O)(=O)NC(=O)Cc1cccc(O[C@@H]2CC[C@@H](NC(=O)[C@@]3(F)CNC4(CCC4)C3)C2)c1-c1cccc(F)c1C1CCC1 (atropisomer, axis not shown) [Example I17, (7S)-N-[(1R,3R)-3-({(1ψ)-2′-cyclobutyl-6-[2-(dimethylsulfamamido)-2-oxoethyl]-3′-fluoro[1,1′-biphenyl]-2-yl}oxy)cyclopentyl]-7-fluoro-5-azaspiro[3.4]octane-7-carboxamide]
0.9 nM	1.4 nM	0.04 nM				CC(C)c1ccccc1-c1cc(CC(=O)NS(=O)(=O)C2(C)CC2)ccc1O[C@@H]1CC[C@@H](NC(=O)[C@@]2(F)CNC3(CCC3)C2)C1 [Example C54, (7S)-7-fluoro-N-[(1R,3R)-3-({5-[2-(1-methylcyclopropane-1-sulfonamido)-2-oxoethyl]-2′-(propan-2-yl)[1,1′-biphenyl]-2-yl}oxy)cyclopentyl]-5-azaspiro[3.4]octane-7-carboxamide]
10.8 nM	61.4 nM				0.66 nM	CN1CC(C)(C)C[C@H]1C(=O)N[C@@H]1CC[C@@H](Oc2ccc(CC(=O)NS(C)(=O)=O)cc2-c2cccc(F)c2C2CCC2)C1 [Example E2, N-{(1R,3R)-3-[(2′-cyclobutyl-3′-fluoro-5-{2-[(methanesulfonyl)amino]-2-oxoethyl}[1,1′-biphenyl]-2-yl)oxy]cyclopentyl}-1,4,4-trimethyl-L-prolinamide]
99 nM	203 nM	53 nM				CN1CC(C)(C)C[C@H]1C(=O)N[C@@H]1CC[C@@H](Oc2ccc(C(C)(C)C(=O)NS(C)(=O)=O)cc2-c2ccccc2CC(F)(F)F)C1 [Example E6, N-[(1R,3R)-3-{[5-{1-[(methanesulfonyl)amino]-2-methyl-1-oxopropan-2-yl}-2′-(2,2,2-trifluoroethyl)[1,1′-biphenyl]-2-yl]oxy}cyclopentyl]-1,4,4-trimethyl-L-prolinamide]
